In patent US8551958B2, “Galactosylated pro-drugs of non-steroidal anti-inflammatories with improved pharmacokinetic characteristics and reduced toxicity of the starting drug” (Stewart Italia Srl, priority 2008, dated 2013):

Columns and labels:
[1] = tested on: writhing induced by acetic acid; assay: Writhing test induced by acetic acid; type: in vivo, mice
Method: The analgesic activity was studied using the “writhing test” using acetic acid and using magnesium sulphate. To the mice there was administered by intraperitoneal route 1 mL of solution at 1% of acetic acid, and the number of writhing events was evaluated for 20 min, after 5 min from administration of the solution of acetic acid. Writhing is defined as a contraction of the abdominal muscles accompanied by elongation of the body and of the rear legs. Ketorolac and Ketogal were administered by oral route 60 min prior to administration of the solution of acetic acid. The analgesic effect is expressed in number of writhing events as compared to the control.

[2] = tested on: writhing induced by magnesium sulphate; assay: Writhing induced by magnesium sulphate (visceral pain); type: in vivo, mouse; details: ketorolac 0.01 to 10 mg/kg, Ketogal in equimolar dose; 1 hour before magnesium sulphate 120 mg/kg
Method: In order to determine whether ketorolac and Ketogal are able to inhibit visceral pain, the effects of these compounds on “writhing” induced by magnesium sulphate were tested. Magnesium sulphate induces a reversible response when injected by intraperitoneal route in the mouse. The administration of 120 mg/kg of magnesium sulphate induces an average of 6±0.9 episodes of “writhing” in the mouse (n=6).

O=C(c1ccccc1)c1ccc2n1CC[C@@H]2C(=O)OCC1O[C@H](O)C(O)C(O)[C@H]1O (mixture of isomers) [Ketogal, ketorolac-D-galactos-6′-yl ester]
Analgesic activity compared with ketorolac ([1]; Ketogal 0.163 mg/kg versus ketorolac 0.1 mg/kg, oral and subcutaneous administration): better analgesic and anti-inflammatory activity than ketorolac | Analgesic effect (number of writhing events compared to control) ([1]; oral, 60 min prior to acetic acid, ketorolac 0.01-10 mg/kg, Ketogal 0.0163-16.3 mg/kg): dose-dependent analgesic effect of higher than 0.163 mg/kg | Inhibition of writhing induced by magnesium sulphate [2]: able to inhibit this response in a dose-dependent way
